The values that follow come from patent publication US20230286995A1, “METABOLICALLY STABLE PYRIMIDINYL DIHYDROQUINOXALINONES AS TUBULIN POLYMERIZATION INHIBITORS” (UNIVERSITY OF TENNESSEE RESEARCH FOUNDATION, priority 2022, published 2023).

In one data set the test system is A-253 and Detroit 562. In words: Cytotoxicity in head and neck cancer cell lines. To be noted: Homo sapiens; FIG. 39A; read-out: IC50 values, range over A-253 and Detroit 562. In kind it is cell-based. As to the method: A panel of dihydroquinoxalinones were tested in two head and neck cancer cell lines, A-253 and Detroit 562. A-253 cells are a human salivary epidermoid carcinoma cell line, whereas Detroit 562 is a head and neck squamous cell carcinoma (HNSCC). Oral cancer is the most common type of head and neck cancer and more than 90% of oral cancers are either oral or oropharyngeal squamous cell carcinoma (SCC). A major clinical dilemma is chemotherapy efficiency targeted for head and neck squamous cell carcinoma (HNSCC). The inability to successfully complete cancer treatment utilizing a standard surgical approach due to an advanced stage of HNSCC and/or resistance of SCC cells to conventional chemotherapy and/or radiotherapy leads to a continuous search for new compounds with cytostatic activity and minor side effects.
FIGS. 39B and 39C illustrate the graphical representation of the data. […] For example, at treatment levels as low of 0.5 nM, 12k was able to prevent head and neck cancer cell proliferation almost completely, whereas it required 5 nM of 17ya to achieve similar antiproliferation.

For another data set, the system named is M14/LCC6MDR1. In words: Cytotoxicity assay (MTS, 72 h). In kind it is cell-based. To be noted: Homo sapiens, read-out: IC50 ± SEM (nM) M14/LCC6MDR1.
The next data set relates to RPMI-7951. The experiment in a line: Cytotoxicity assay (MTS, 72 h). In kind it is cell-based. To be noted: Homo sapiens, Table 1, read-out: IC50 (nM) Melanoma RPMI-7951.
The nature of the next data set: logP. In kind it is physicochemical. As to conditions: Table 1; method not described.
For another data set, the system named is A375/TxR. The experiment in a line: Cytotoxicity assay (MTS, 72 h). To be noted: Homo sapiens, read-out: IC50 ± SEM (nM) A375/TxR. In kind it is cell-based.
A further data set relates to MDA-MB-231/VxR. The experiment in a line: Cytotoxicity assay (MTS, 72 h). In kind it is cell-based. To be noted: Homo sapiens, MDA-MB-231, read-out: IC50 ± SEM (nM) MDA-MB-231/VXR.
The next data set relates to DU-145/VxR. The experiment in a line: Cytotoxicity assay (MTS, 72 h). As to conditions: Homo sapiens, DU-145, read-out: IC50 ± SEM (nM) DU-145/VXR. In kind it is cell-based.
Data set [1] relates to human melanoma and breast cancer cell lines. The experiment in a line: Cytotoxicity, all tested cell lines of Table 1. As to conditions: Homo sapiens, melanoma and breast lines of Table 1; read-out: IC50 values, range over all tested cell lines. In kind it is cell-based.
Data set [2] relates to taxane-resistant melanoma, breast, and lung cancer cells. The experiment in a line: Cytotoxicity, regular and taxane-resistant lines of Table 2. In kind it is cell-based. As to conditions: Homo sapiens; taxane-resistant melanoma, breast, and lung cancer cells; read-out: IC50 values, range against taxane-resistant cells.
Data set [3] deals with T1, tubulin protein from bovine brain (Bos taurus, UniProt P81947+Q6B856).
T1 construct: tubulin protein from bovine brain origin; purchased Cytoskeleton, Denver, Colo; host or cells: bovine brain
In words: Tubulin polymerization assay (FIG. 5A). In kind it is biochemical. To be noted: 10 μM, cell-free. As to the method:
Tubulin polymerization reaction was initiated by adding 100 μL of tubulin protein from bovine brain origin (3 mg/ml, Cytoskeleton, Denver, Colo.) into 10 μM of test compounds in general tubulin buffer (80 mM PIPES, 2.0 mM MgCl2, 0.5 mM EGTA, and 1 mM GTP) according to the manufacturer protocol. The reaction kinetics were recorded in every thirty seconds for 1 h at 37° C. and a microplate reader equipped with absorbance settings at 340 nm wavelength was used for this purpose. The experiment was performed in duplicates.

A further data set has as its system A549/TxR. The experiment in a line: cells. As to conditions: Homo sapiens, read-out: IC50 ± SEM (nM) A549/TxR.
In the next data set the test system is MDA-MB-231. In words: Cytotoxicity assay (MTS, 72 h). In kind it is cell-based. As to conditions: Homo sapiens.
The subject of the next data set is MDA-MB-453. The experiment in a line: Cytotoxicity assay (MTS, 72 h). To be noted: Homo sapiens, MDA-MB-453; Table 6; read-out: IC50 (nM) Breast Cancer MDA-MB-453. In kind it is cell-based, human.
For a further data set, the system named is Mia PaCa-2. In words: Cytotoxicity assay (MTS, 72 h). In kind it is cell-based. To be noted: Homo sapiens.
The subject of a further data set is PANC-1. In words: Cytotoxicity assay (MTS, 72 h). In kind it is cell-based. To be noted: Homo sapiens. As to the method: Mia PaCa-2 and PANC-1 cells were seeded in 96-well plates at 4000 and 5000 cells per well, respectively.
(§1) Cytotoxicity Assay. […] Each experiment consisted of four replicates.

For the next data set, the system named is PC3. In words: Cytotoxicity assay (MTS, 72 h). In kind it is cell-based. To be noted: Homo sapiens, PC-3; Table 6; read-out: IC50 (nM) Prostate cancer PC3.
Excerpt: as §1

The next data set deals with PC3/TxR. The experiment in a line: Cytotoxicity assay (MTS, 72 h). To be noted: Homo sapiens, Table 6, paclitaxel-resistant, read-out: IC50 (nM) Prostate cancer PC3/TxR. In kind it is cell-based. As to the method:
Biology. Cell culture and Reagents. […] MIA Paca-2 pancreatic cancer cells were cultured in media also supplemented with 2.5% horse serum. PANC-1 and PC-3 were cultured in RPMI 1640 medium (Gibco, Carlsbad, Calif.) supplemented with 10% FBS and 1% antibiotic/antimycotic mixture. […] For biological experiments, pyrimidine dihydroquinoxalinone derivatives were dissolved in DMSO to create 20 mM stock solutions and stored at −20° C. until use.
as §1

Data set [4] in a line: in vitro. As to conditions: human, liver microsomes. A general note: Liver microsomes are a subcellular fraction often used to study metabolism.
A short description of data set [5]: in vitro. To be noted: mouse, liver microsomes.
Another data set has as its system A375. The experiment in a line: Cytotoxicity assay (MTS, 72 h). As to conditions: Homo sapiens.
For the next data set, the system named is M14. The experiment in a line: Cytotoxicity assay (MTS, 72 h). To be noted: Homo sapiens.
Data set [6] deals with melanoma, breast, pancreatic and prostate cancer cell lines. In words: Cytotoxicity of Example 8 compounds. In kind it is cell-based, human.
Excerpt: as §1

Where [7] appears, read: MDA-MB-231, read-out: IC50 (nM) Breast Cancer MDA-MB-231, Table 6.

Counter-ions that a name gives are not always drawn. Like-named read-outs stand apart in the source and are kept apart here. A value given as a limit tells only on which side of the number the result lay.

T1 sequence (P81947 whole entry): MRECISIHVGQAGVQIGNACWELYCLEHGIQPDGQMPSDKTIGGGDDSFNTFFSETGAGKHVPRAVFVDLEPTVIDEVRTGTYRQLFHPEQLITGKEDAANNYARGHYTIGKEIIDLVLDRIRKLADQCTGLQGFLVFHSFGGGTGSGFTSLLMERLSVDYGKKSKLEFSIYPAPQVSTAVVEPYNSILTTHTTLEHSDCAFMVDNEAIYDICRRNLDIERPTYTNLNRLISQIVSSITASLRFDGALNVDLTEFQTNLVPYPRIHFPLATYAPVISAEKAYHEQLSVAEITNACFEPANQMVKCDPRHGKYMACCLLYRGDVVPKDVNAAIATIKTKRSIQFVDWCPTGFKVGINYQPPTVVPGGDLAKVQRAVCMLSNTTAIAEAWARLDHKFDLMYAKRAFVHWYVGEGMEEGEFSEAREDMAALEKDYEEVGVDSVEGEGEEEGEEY
T1 sequence (Q6B856 whole entry): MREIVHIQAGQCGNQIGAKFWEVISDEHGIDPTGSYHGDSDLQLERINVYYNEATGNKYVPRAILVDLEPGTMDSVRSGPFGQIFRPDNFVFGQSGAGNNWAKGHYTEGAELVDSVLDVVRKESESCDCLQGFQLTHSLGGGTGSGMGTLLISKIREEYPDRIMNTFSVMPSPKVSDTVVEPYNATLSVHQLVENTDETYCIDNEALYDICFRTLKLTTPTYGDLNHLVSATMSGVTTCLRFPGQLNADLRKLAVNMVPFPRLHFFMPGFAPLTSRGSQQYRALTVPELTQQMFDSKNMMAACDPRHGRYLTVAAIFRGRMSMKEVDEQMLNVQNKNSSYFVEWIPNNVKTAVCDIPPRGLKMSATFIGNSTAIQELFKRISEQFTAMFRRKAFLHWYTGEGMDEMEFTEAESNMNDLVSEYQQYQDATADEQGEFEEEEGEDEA

On to `CCNc1nc2c(c(N3CC(=O)Nc4cc(OC)ccc43)n1)CCC2` [5v HCl, 4-(2-(ethylamino)-6,7-dihydro-5H-cyclopenta[d]pyrimidin-4-yl)-7-methoxy-3,4-dihydroquinoxalin-2(1H)-one], for which the IC50 with A-253 and Detroit 562 lay in the range of 0.52 to 3.2 nM.
`COc1cc2c(c(OC)c1OC)-c1ccc(OC)c(=O)cc1[C@@H](NC(C)=O)CC2` [Colchicine, reference compound]: in the data set on M14/LCC6MDR1, the IC50 is over 1000 nM.
The term logP denotes the decadic logarithm of the partition coefficient of the neutral form, usually between octanol and water. Low readings indicate a more hydrophilic compound, high ones a more lipophilic compound. As to `CCNc1nc(N2CC(=O)Nc3cc(OC)ccc32)c2ncccc2n1` [Compound 5t, 4-(2-(ethylamino)pyrido[3,2-d]pyrimidin-4-yl)-7-methoxy-3,4-dihydroquinoxalin-2(1H)-one], the IC50 was 0.8 ± 0.1 nM in the data set on RPMI-7951; 1.3 nM with A375/TxR (Table 2, paclitaxel-resistant); 2.9 ± 0.4 nM in the data set on MDA-MB-231/VxR; 1.8 ± 0.4 nM with DU-145/VxR; 0.4 to 26 nM in [1]; 0.3 to 5 nM in data set [2]. In the data set on A549/TxR, the IC50 was 5.4 ± 1.7 nM. In the data set “logP”, this compound yielded a logP of 1.72. The “effect on microtubule polymerization” value in data set [3] is “significantly inhibited microtubule polymerization”.
In general, half-life refers to how long it takes for the measured level to halve. Lower therefore signals fast loss. As a reminder, the microsomal CLint is a measure of how fast metabolising enzymes remove a compound, apart from limits set by blood flow. `COc1ccc2c(c1)NC(=O)CN2c1nc(NC2CC2)nc2c1CCC2` [Compound 12j, 4-(2-(cyclopropylamino)-6,7-dihydro-5H-cyclopenta[d]pyrimidin-4-yl)-7-methoxy-3,4-dihydroquinoxalin-2(1H)-one]: the IC50 with MDA-MB-231 (setting [7]) amounted to 2.2 ± 0.4 nM; in the data set with MDA-MB-453, 1.1 ± 0.3 nM; with Mia PaCa-2 (Table 6, read-out: IC50 (nM) Pancreatic cancer Mia PaCa-2) it was 3.9 ± 0.6 nM; with PANC-1 (Table 6, read-out: IC50 (nM) Pancreatic cancer PANC-1), 3.4 ± 0.6 nM; with PC3 it was 0.6 nM; in the data set on PC3/TxR, 0.2 nM. In addition, the IC50 is about 1.4 nM in the data set on A375 (A-375, read-out: IC50 (nM) Melanoma Cancer A375, Table 6) and 1.2 ± 0.3 nM in the data set on M14 (M14, read-out: IC50 (nM) Melanoma Cancer M14). In addition, the results for the half-life at 1 μg/mL in “in vitro [4]” and in the data set “in vitro [5]” were 80.3 min and 13.6 min, respectively. In addition, the microsomal CLint at 1 μg/mL came to 8.68 µL/min/mg in the data set “in vitro [4]” and 51 µL/min/mg in “in vitro [5]”.
`Cc1nc2c(c(N3CC(=O)Nc4cc(OCc5ccccc5)ccc43)n1)CCC2` [Compound 12p, 7-(benzyloxy)-4-(2-methyl-6,7-dihydro-5H-cyclopenta[d]pyrimidin-4-yl)-3,4-dihydroquinoxalin-2(1H)-one]: the IC50 in the data set with MDA-MB-231 (setting [7]) was 423 ± 110 nM; in the data set on Mia PaCa-2 (Table 6, cells printed in μM, read-out: IC50 Pancreatic cancer Mia PaCa-2) it was over 1250 nM; with PANC-1 (Table 6, cells printed in μM, read-out: IC50 Pancreatic cancer PANC-1), over 1200 nM. In addition, the “cytotoxic potency” value in data set [6] was “least in potency”.
With `COc1ccc(Nc2nc(OC)nc3c2CCC3)c(N)c1` [Compound 20, 4-methoxy-N1-(2-methoxy-6,7-dihydro-5H-cyclopenta[d]pyrimidin-4-yl)benzene-1,2-diamine], in [6], the “cytotoxic potency” value is given as “little to no cytotoxic activity”.
Still for that read-out and setting: for `CNC(=O)C(=O)Nc1cc(OC)ccc1Nc1nc(SC)nc2c1CCC2` [Compound 21, N1-(5-methoxy-2-((2-(methylthio)-6,7-dihydro-5H-cyclopenta[d]pyrimidin-4-yl)amino)phenyl)-N2-methyloxalamide] the value was “little to no cytotoxic activity”.
Regarding `COc1ccc(N(C)c2nc(C)nc3ccccc23)cc1` [Verubulin, N-(4-methoxyphenyl)-N,2-dimethylquinazolin-4-amine, reference compound], the IC50 with MDA-MB-231 (MDA-MB-231, read-out: IC50 ± SEM (nM) MDA-MB-231, Table 2) turned out to be 1.9 ± 0.4 nM; with A375/TxR it was 0.7 ± 0.1 nM; in the data set with MDA-MB-231/VxR, 2 ± 0.4 nM; with A375 (A-375, read-out: IC50 ± SEM (nM) A375, Table 2) it was 0.7 ± 0.1 nM; in the data set on M14 (M14, read-out: IC50 ± SEM (nM) M14), 1 ± 0.1 nM.
